Measured values as given in PubChem BioAssay (NCI).
Values joined by “and” are separate entries in the source; they are usually repeats but may differ in a detail not shown here. Equal entries are not always repeated.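 The compound was tested at five concentrations on cells cultured in 96-well plates, with a 48-hour exposure period. Abbreviation: GI50, concentration required for 50% inhibition of growth. The concentration for full growth arrest is given as TGI.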

Legend:
Test in all cases: NCI-60 cell line screen, 48 h
NCI-H226 lung = tested on: NCI-H226 lung
RXF 393 renal = tested on: RXF 393 renal
A549 NSCLC = tested on: A549 NSCLC
A498 renal = tested on: A498 renal
UACC-257 melanoma = tested on: UACC-257 melanoma
IGROV1 ovarian = tested on: IGROV1 ovarian
SK-MEL-2 melanoma = tested on: SK-MEL-2 melanoma
HCT-15 colon = tested on: HCT-15 colon
CAKI-1 renal = tested on: CAKI-1 renal
PC-3 prostate = tested on: PC-3 prostate

SMILES | TGI (NCI-H226 lung) [µM] | TGI (RXF 393 renal) [µM] | TGI (A549 NSCLC) [µM] | TGI (A498 renal) | TGI (UACC-257 melanoma) | TGI (IGROV1 ovarian) | TGI (SK-MEL-2 melanoma) | TGI (HCT-15 colon) [µM] | TGI (CAKI-1 renal) [µM] | GI50 (NCI-H226 lung) [µM] | GI50 (RXF 393 renal) [µM] | GI50 (A549 NSCLC) [µM] | GI50 (SK-MEL-2 melanoma) [µM] | GI50 (A498 renal) [µM] | GI50 (UACC-257 melanoma) | GI50 (IGROV1 ovarian) | GI50 (CAKI-1 renal) [µM] | GI50 (HCT-15 colon) [µM] | GI50 (PC-3 prostate) [µM] | TGI (PC-3 prostate) [µM]
CC1=CC(C)(c2c[nH]c3ccccc23)CC(C)(C)c2c1[nH]c1ccccc21 (stereo not drawn) | 37.1 | 26.6 | 28.3 | 37.8 µM | 41.2 µM | 36 µM |  |  |  |  |  |  |  |  |  |  |  |  |  | 
CCCCC(C)/C=C/C(=O)C1=C(O)/C(=C/C(=O)O)OC1=O (stereo not drawn) | > 100 |  | > 100 | > 100 µM | > 100 µM | > 100 µM | > 100 µM | > 100 |  |  |  |  |  |  |  |  |  |  |  | 
O=C1/C(=C/c2ccc3c(c2)OCCO3)CCC/C1=C\c1ccc2c(c1)OCCO2 |  | 53.5 | > 100 | 62.1 µM | 59.7 µM | > 100 µM |  | > 100 | > 100 |  |  |  |  |  |  |  |  |  |  | 
O=c1c2ccccc2[nH]c2c(O)ccc(O)c12 | 66.4 | 25.8 | > 100 | 96 µM | 34.6 µM | 35.3 µM | > 100 µM | 37.2 | 30.4 |  |  |  |  |  |  |  |  |  |  | 
O=c1c2cc(Br)cc(Br)c2nc(CCCl)n1-c1ccc(O)c([N+](=O)[O-])c1 | 37.1 |  | 31.7 | 52 µM | 29.4 µM | 40.4 µM | 34.6 µM | 38.1 |  |  |  |  |  |  |  |  |  |  |  | 
C[C@H]1C/C=C/[C@H]2[C@@H]3O[C@]3(C)[C@@H](C)[C@H]3[C@H](Cc4ccccc4)NC(=O)[C@]32OC(=O)O/C=C/[C@@](C)(O)C1=O |  |  |  | 0.0665 µM and 0.527 µM | 29.9 µM and 24.1 µM and 49.8 µM | > 33.5 µM and 125 µM and > 250 µM | 38.6 µM and 125 µM | 56.6 | 0.0428 | 0.025 | 0.0125 | 0.0462 | 34.2 | 0.0126 | 0.127 µM and 0.0594 µM | 0.0703 µM and 0.0723 µM and 0.025 µM |  |  |  | 
N#Cc1c(-c2ccccc2)cc(-c2ccc(N)cc2)[nH]c1=O | > 100 | > 100 | > 100 | > 100 µM | > 100 µM | > 100 µM |  | > 100 |  |  |  |  |  |  |  |  |  |  |  | 
Nc1nonc1-c1nc2ccccc2n1Cc1ccc(F)cc1 | > 100 | > 100 | > 100 | > 100 µM | > 100 µM | > 100 µM |  | > 100 | > 100 | > 100 | 4.42 | 5.69 |  | 2.2 | > 100 µM | 5.25 µM | 3.48 | 3.6 |  | 
CC(=O)Oc1ccc2c(c1)[C@@]1(C)CCCC(C)(C)[C@@H]1CC2 | 37.4 | 86.3 | 64.8 |  | 43.6 µM | > 100 µM | > 100 µM | 37.3 | > 100 | 18.5 | 41.2 | 24.7 | 29.8 |  | 18.2 µM | 49.4 µM | 28 | 19.5 | 20.1 | 39
Cc1ccccc1NC(=O)/C=N/O | > 100 | > 100 | > 100 | > 100 µM | > 100 µM | > 100 µM | > 100 µM | > 100 | > 100 |  |  |  |  |  |  |  |  |  |  | 
COC(=O)c1cccc2c3ccccc3c3ccccc3c12 | > 100 | 71.3 | > 100 | 50 µM | > 100 µM | > 100 µM | 58.7 µM | > 100 | > 100 |  |  |  |  |  |  |  |  |  |  | 
CCOC(=O)C(=O)Nc1cc(Cl)c(Cl)cc1Cl | > 100 | > 100 |  |  | > 100 µM | > 100 µM | > 100 µM | > 100 | > 100 |  |  |  |  |  |  |  |  |  |  | 
COC(=O)CCC(=O)N1C/C(=C\c2ccccc2)C(=O)/C(=C/c2ccccc2)C1 | 13.5 | 3.74 | 12.3 | 4.45 µM | 4.11 µM | 3.94 µM |  | 2.43 | 3.22 |  |  |  |  |  |  |  |  |  |  | 
Cc1cccc(C)c1NC(=O)CCc1nnc2s/c(=C\c3ccc(N(C)C)cc3)c(=O)n12 | > 100 | > 100 | > 100 | > 100 µM | > 100 µM | > 100 µM | > 100 µM | > 100 | > 100 |  |  |  |  |  |  |  |  |  |  | 
CCCCCCCCCC[C@@H](O)[C@@H]1CC[C@@H]([C@@H]2CC[C@@H]([C@@H](O)CCCCCCCCCC[C@H](O)CC3=CC(C)OC3=O)O2)O1 (stereo partly drawn) | 3.49 | 9.8 | 38.5 | 8.64 µM and 34.9 µM | 7.89 µM | 7.47 µM and 36.8 µM | 4.68 µM and 31.2 µM | > 100 | > 65.3 |  |  | 3.05 | 1.23 | 8.48 | < 0.0462 µM | 4.4 µM | 3.62 | 4.23 |  | 
CC1=C(C(=O)NCc2ccccc2)C(c2ccc(Cl)c(Cl)c2)C(C(=O)NCc2ccccc2)=C(C)N1 | > 100 | > 100 | > 100 | > 100 µM | > 100 µM | > 100 µM | > 100 µM | > 100 |  |  |  |  |  |  |  |  |  |  |  | 
C[P+](C)(C)C | > 100 | > 100 | > 100 |  | > 100 µM | > 100 µM | > 100 µM | > 100 | > 100 |  |  |  |  |  |  |  |  |  |  | 

SMILES | TGI (NCI-H226 lung) [µM] | TGI (RXF 393 renal) [µM] | TGI (A549 NSCLC) [µM] | TGI (A498 renal) | TGI (UACC-257 melanoma) | TGI (IGROV1 ovarian) | TGI (SK-MEL-2 melanoma) | TGI (HCT-15 colon) [µM] | TGI (CAKI-1 renal) [µM] | GI50 (NCI-H226 lung) [µM] | GI50 (RXF 393 renal) [µM] | GI50 (A549 NSCLC) [µM] | GI50 (SK-MEL-2 melanoma) [µM] | GI50 (A498 renal) [µM] | GI50 (UACC-257 melanoma) | GI50 (IGROV1 ovarian) | GI50 (CAKI-1 renal) [µM] | GI50 (HCT-15 colon) [µM] | GI50 (PC-3 prostate) [µM] | TGI (PC-3 prostate) [µM]
CCc1cccc(C(C)C)c1NC(=O)CCl | > 100 |  | > 100 |  | > 100 µM | > 100 µM | > 100 µM | > 100 | > 100 |  |  |  |  |  |  |  |  |  |  | 
CC1(C)CCCC2(C)C3C(O)CC2(C)C(O)C31 (stereo not drawn) | > 100 | > 100 | > 100 | > 100 µM | > 100 µM | > 100 µM | > 100 µM | > 100 |  |  |  |  |  |  |  |  |  |  |  | 
Cn1c(=O)nc2n(-c3ccc(Cl)cc3)c(-c3ccccc3)c(-c3ccccc3)nc-2c1=O | 58.8 |  | > 100 | > 100 µM | 66.9 µM | > 100 µM | 60 µM | > 100 | > 100 |  |  |  |  |  |  |  |  |  |  | 
CCCCCCCCOCC(O)CO (stereo not drawn) | > 100 | > 100 | > 100 | > 100 µM | > 100 µM | > 100 µM | > 100 µM | > 100 | > 100 |  |  |  |  |  |  |  |  |  |  | 
Cc1cccc(C)c1NC(=O)CCC/C(CC(=O)c1ccc(F)cc1)=N\NC(=O)C(=O)NN | > 100 | > 100 | > 100 | > 100 µM | > 100 µM | > 100 µM | > 100 µM | > 100 | > 100 |  |  |  |  |  |  |  |  |  |  | 
CCOC(=O)C1C=C2O[C@@H]3OC4(CCCCC4)O[C@@H]3C2C2C(=O)CCC(=O)[C@@]12C(=O)OC (stereo partly drawn) | > 100 |  | > 100 | > 100 µM | > 100 µM | > 100 µM | > 100 µM | > 100 | > 100 |  |  |  |  |  |  |  |  |  |  | 
Nc1ccc(-c2cc(C(=O)Nc3nccs3)[nH]c(=S)n2)cc1 | > 100 | > 100 | > 100 | > 100 µM | > 100 µM | > 100 µM | > 100 µM | > 100 | > 100 |  |  |  |  |  |  |  |  |  |  | 
C1OC1CN1CCN(CC2CO2)CC1 (stereo not drawn) | > 100 | > 100 | > 100 | > 100 µM | > 100 µM | > 100 µM | > 100 µM | > 100 | > 100 |  |  |  |  |  |  |  |  |  |  | 
O=C1N2Cc3c4ccc5c3CN3C(=O)N6Cc7c(ccc(c7CN1C6(c1ccccc1)C23c1ccccc1)OCCOCCOc1cc(Br)c(Br)cc1OCCOCCO4)OCCOCCOc1cc(Br)c(Br)cc1OCCOCCO5 (stereo not drawn) | > 100 | > 100 | > 100 |  | > 100 µM | > 100 µM | > 100 µM | 67.7 | > 100 |  |  |  |  |  |  |  |  |  |  | 
C/C(=N\NC(=O)C[N+](C)(C)C)c1sc(-c2cccnc2)nc1C | > 100 | > 100 | > 100 |  | > 100 µM | > 100 µM | > 100 µM |  |  |  |  |  |  |  |  |  |  |  |  | 
C/C(=N\NC(N)=S)c1ccc(C)c(C)c1 | > 100 | 86.4 | > 100 | > 100 µM | > 100 µM | > 100 µM | > 100 µM | > 100 | > 100 |  |  |  |  |  |  |  |  |  |  | 
O=[P+](O)c1ccccn1 | > 100 | > 100 | > 100 | > 100 µM | > 100 µM | > 100 µM |  | > 100 | > 100 |  |  |  |  |  |  |  |  |  |  | 
Cc1ccc(S(=O)(=O)N/N=C(\c2nc3ccc([N+](=O)[O-])cc3[nH]c2=O)C(O)c2ccc([N+](=O)[O-])cc2)cc1 (stereo not drawn) |  | > 100 | > 100 | > 100 µM | > 100 µM | > 100 µM | > 100 µM | > 100 | > 100 |  |  |  |  |  |  |  |  |  |  | 
CN(C)CCC(/C=C/c1ccccc1)=N\Nc1ccc(Cl)c(Cl)c1 |  | 9.05 | 10.6 | 13.8 µM | 9.77 µM | 10.1 µM | 6.31 µM | 12.9 | 7.03 |  |  |  |  |  |  |  |  |  |  | 
Cc1cc(N(CCC#N)CCC#N)ccc1N=Nc1cc(Cl)ccc1Cl | 25.2 | 23 | 38.5 | 34.7 µM | 23.8 µM | 28.6 µM | 33.8 µM | 6.58 | 9.68 |  |  |  |  |  |  |  |  |  |  | 
O=C1C(=C2CCCC2)CCC1CN1CCCCC1 (stereo not drawn) |  | 30 | > 100 | 35.7 µM | 34.8 µM | 36.3 µM | 30.7 µM | 31.2 |  |  |  |  |  |  |  |  |  |  |  | 
CC(C)(C)OP(=O)(OC(C)(C)C)C(O)c1ccc(/C=C(\C#N)C(N)=O)cc1 (stereo not drawn) | > 100 | > 100 | > 100 | > 100 µM | > 100 µM | > 100 µM | > 100 µM | > 100 | > 100 |  |  |  |  |  |  |  |  |  |  | 
